Test [1] has as its target T1, topoisomerase I (topoI) (Dickeya dadantii, UniProt E0SBX6).
T1 construct: gene topA; N-terminally 6xhis-tagged topoisomerase I
The experiment in a line: pUC18 plasmid relaxation assay on agarose gel with purified topoI. It is filed as biochemical.

Test [2] deals with T2, topoisomerase I (topoI) (Escherichia coli, UniProt P06612).
T2 construct: gene topA; commercial topoI (NEB)
The experiment in a line: plasmid relaxation assay on agarose gel with purified commercial topoI. The format is biochemical.

T2 sequence (P06612 whole entry): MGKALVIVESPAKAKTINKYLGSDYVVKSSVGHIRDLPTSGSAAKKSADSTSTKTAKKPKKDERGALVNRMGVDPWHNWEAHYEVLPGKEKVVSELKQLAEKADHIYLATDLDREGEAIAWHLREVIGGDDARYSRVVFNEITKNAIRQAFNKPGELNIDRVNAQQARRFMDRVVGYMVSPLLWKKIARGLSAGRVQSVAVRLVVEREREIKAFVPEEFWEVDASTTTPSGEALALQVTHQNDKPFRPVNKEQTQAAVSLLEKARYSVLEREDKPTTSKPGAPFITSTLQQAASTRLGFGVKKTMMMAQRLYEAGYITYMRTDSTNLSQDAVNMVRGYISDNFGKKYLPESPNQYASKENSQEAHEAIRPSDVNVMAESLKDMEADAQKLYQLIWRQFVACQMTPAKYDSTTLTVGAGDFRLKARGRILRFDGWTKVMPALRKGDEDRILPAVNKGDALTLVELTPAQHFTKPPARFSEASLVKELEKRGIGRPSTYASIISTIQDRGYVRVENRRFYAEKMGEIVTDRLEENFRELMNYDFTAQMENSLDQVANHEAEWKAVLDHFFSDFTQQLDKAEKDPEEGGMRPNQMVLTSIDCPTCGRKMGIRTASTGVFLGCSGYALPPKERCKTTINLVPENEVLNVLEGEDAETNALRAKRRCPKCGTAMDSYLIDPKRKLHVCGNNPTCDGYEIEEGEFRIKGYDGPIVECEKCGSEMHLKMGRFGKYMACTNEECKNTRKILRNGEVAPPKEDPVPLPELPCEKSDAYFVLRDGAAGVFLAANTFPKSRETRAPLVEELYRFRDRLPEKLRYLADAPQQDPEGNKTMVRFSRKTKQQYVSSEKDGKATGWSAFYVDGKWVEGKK
T1 sequence (E0SBX6 entry or part of it): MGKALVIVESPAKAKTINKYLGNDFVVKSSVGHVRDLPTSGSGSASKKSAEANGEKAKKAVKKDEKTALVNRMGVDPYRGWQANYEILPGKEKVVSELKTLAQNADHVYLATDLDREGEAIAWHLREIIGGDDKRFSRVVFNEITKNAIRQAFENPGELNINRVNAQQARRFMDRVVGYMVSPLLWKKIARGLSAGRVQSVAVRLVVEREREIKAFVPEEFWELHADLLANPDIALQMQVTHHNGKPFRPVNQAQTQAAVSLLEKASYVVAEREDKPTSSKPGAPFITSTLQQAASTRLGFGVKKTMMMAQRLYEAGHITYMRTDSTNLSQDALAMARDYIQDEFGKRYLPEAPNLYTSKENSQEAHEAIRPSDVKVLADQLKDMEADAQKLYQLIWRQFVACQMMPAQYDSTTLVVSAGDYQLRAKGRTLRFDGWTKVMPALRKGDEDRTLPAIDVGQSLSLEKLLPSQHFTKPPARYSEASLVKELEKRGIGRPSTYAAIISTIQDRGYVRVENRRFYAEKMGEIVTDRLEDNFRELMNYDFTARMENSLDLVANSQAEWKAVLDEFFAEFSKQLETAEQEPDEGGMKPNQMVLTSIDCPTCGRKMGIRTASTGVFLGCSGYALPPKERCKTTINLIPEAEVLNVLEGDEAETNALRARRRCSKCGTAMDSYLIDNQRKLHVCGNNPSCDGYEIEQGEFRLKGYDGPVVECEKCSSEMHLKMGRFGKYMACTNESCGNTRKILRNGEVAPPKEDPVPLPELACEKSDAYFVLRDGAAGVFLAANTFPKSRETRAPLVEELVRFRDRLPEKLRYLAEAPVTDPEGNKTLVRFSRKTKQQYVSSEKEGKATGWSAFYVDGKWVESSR

For `CNCCc1cc2c(c3c1ccc1cc4c(cc13)OCO4)OCO2` [SCN, seconeolitsine], the IC50 in test [1] was 4 µM; in test [2], approximately 7 µM.

The record behind these values is publication PMC9458453, “What is a supercoiling-sensitive gene? Insights from topoisomerase I inhibition in the Gram-negative bacterium Dickeya dadantii” (Nucleic Acids Research, 2022).
